Test results published in US20110294663A1, “Herbicidal composition for tolerant or resistant corn crops” (priority 2010, published 2011).

Experiments:
Format in all cases: in vivo
Setaria faberii = assay: Greenhouse trial: herbicidal efficacy, Setaria faberii; conditions: Table 5; post-emergence, 1-3-leaf stage, scoring 14 days after treatment; g of ai/ha: A1.1 100; B1.1 5; C7 15; C13 2.5; C9 12.5 alone, 2.5 in combination
Method: (§1) The trials were carried out under greenhouse conditions (test pots, diameter 8 cm, spray application using 300 l of water/hectare, 2 repetitions, 6 to 8 plants per pot).
(§2) Application was by post-emergence treatment; the species of the harmful plants and their stage of growth at the time of treatment are indicated in the individual results tables. The application rates of the herbicidally active compounds used on their own or in combinations are likewise listed in the individual results tables.
(§3) Scoring was by visual comparison of the treated with the untreated control pots (0-100% scale, 14 d after the application).
(§4) 4.2 Abbreviations used in Tables 4 to 8 application rate g/ai=application rate in grams of active compound per hectare • ai=active ingredient (of an active compound content of 100%) • GA=glufosinate-ammonium • GA-tolerant=corn which is tolerant to GA (GMO: LL corn) • E^C=expected value according to Colby, (E^C=A+B−A×B/100)= • =for ternary combinations: (A+B)+C−(A+B)×C/100 • Δ=difference (%) between observed value -%- vs. expected value (%) (observed value minus expected value) • examination: —observed values for (A), (B) and (A)+(B) in % • scoring: —observed value (%) greater>than E^C/E^A: ->synergism (+A) • —observed value (%) equal to =E^C/E^A->additive effect (+−Δ) • —observed value (%) smaller<than E^A/E^C->antagonism (−Δ)

corn (GA-tolerant) = assay: Greenhouse trial: crop plant compatibility
Method: as §1, §3

Setaria viridis = assay: Greenhouse trial: herbicidal efficacy, Setaria viridis; conditions: Table 6; post-emergence, 1-3-leaf stage, scoring 14 days after treatment; g of ai/ha: A1.1 100; B1.1 5; C3 5; C11 25
Method: as §1, §2, §3, §4

Pharbitis purpureum = assay: Greenhouse trial: herbicidal efficacy, Pharbitis purpureum; conditions: Table 7; post-emergence, 1-leaf stage, scoring 14 days after treatment; g of ai/ha: A1.1 100; B1.1 5; C12 50
Method: as §1, §2, §3, §4

Eleusine indica = assay: Greenhouse trial: herbicidal efficacy, Eleusine indica; conditions: Table 8; post-emergence, 1-2-leaf stage, scoring 14 days after treatment; g of ai/ha: A1.1 100; B1.1 5; C8 0.5; isoxadifen 100; cyprosulfamide 100; C′ = isoxadifen in r19, cyprosulfamide in r23
Method: as §1, §2, §3, §4

[1] = Table 5, post-emergence, 1-3-leaf stage, scoring 14 days after treatment, g of ai/ha: A1.1 100, B1.1 5, C7 15, C13 2.5, C9 12.5 alone, 2.5 in combination
[2] = Table 4, post-emergence, 1-2-leaf stage, scoring 14 days after treatment, g of ai/ha: A1.1 100, B1.1 2.5 alone, 5 in combinations, C1 2.5, C2 1.25, C10 250, C4 50, C5 1, C6 2
[3] = Table 8, post-emergence, 1-2-leaf stage, scoring 14 days after treatment, g of ai/ha: A1.1 100, B1.1 5, C8 0.5, isoxadifen 100, cyprosulfamide 100, C′ = isoxadifen in r19, cyprosulfamide in r23

For `CS(=O)(=O)c1ccc(C(=O)C2C(=O)CCCC2=O)c([N+](=O)[O-])c1` [(C7) mesotrione, mesotrione], the “Herbicidal efficacy % Setaria faberii” value (Setaria faberii) was 0% and the “Damage to crop plants (%) corn (GA-tolerant) (≦15-20% acceptable)” value (shortened to “Damage to crop plants (%) corn”) (corn (GA-tolerant); [1]) was 0%.
In the case of `COC(=O)c1nc(-c2ccc(Cl)c(OC)c2F)cc(N)c1Cl` [(B1.1), methyl 4-amino-3-chloro-6-(4-chloro-2-fluoro-3-methoxyphenyl)pyridine-2-carboxylate], the “Herbicidal efficacy % Setaria viridis” value (Setaria viridis) is reported as 90%, the “Herbicidal efficacy % Setaria faberii” value (Setaria faberii) is reported as 96% and the “Damage to crop plants (%) corn” value (corn (GA-tolerant); in vivo) is reported as 0%. For the same compound, the “Herbicidal efficacy % Pharbitis purpureum” value (Pharbitis purpureum) was 45%.
With `CS(=O)(=O)c1ccc(C(=O)C2C(=O)CCCC2=O)c(Cl)c1COCC(F)(F)F` [(C9) tembotrione, tembotrione] the “Herbicidal efficacy % Setaria faberii” value (Setaria faberii) was 10%.
With `CCOCN(C(=O)CCl)c1c(C)cccc1CC` [(C12) acetochlor, acetochlor] the “Damage to crop plants (%) corn” value (corn (GA-tolerant); in vivo) was 0% and the “Herbicidal efficacy % Pharbitis purpureum” value (Pharbitis purpureum) was 10%.
`C#CCN1C(=O)COc2cc(F)c(N3C(=O)C4=C(CCCC4)C3=O)cc21` [(C5) flumioxazin, flumioxazin] was tested, and the “Damage to crop plants (%) corn” value (corn (GA-tolerant); [2]) was 15%.
In the case of `CCNc1nc(Cl)nc(NC(C)C)n1` [(C10) atrazin, atrazine], the “Damage to crop plants (%) corn” value (corn (GA-tolerant); [2]) is reported as 0%.
For `N#Cc1cc(Br)c(O)c(Br)c1` [(C4) bromoxynil, bromoxynil], the “Damage to crop plants (%) corn” value (corn (GA-tolerant); [2]) was 0%.
With `CP(=O)(O)CCC(N)C(=O)O` (centres unmarked) [(A1.1) GA, glufosinate-ammonium] the “Herbicidal efficacy % Setaria viridis” value (Setaria viridis) was 5%, the “Herbicidal efficacy % Setaria faberii” value (Setaria faberii) was 10% and the “Damage to crop plants (%) corn” value (corn (GA-tolerant); [2]) was 0%. The “Damage to crop plants (%) corn” value (corn (GA-tolerant); [1]) was 0%, the “Damage to crop plants (%) corn” value (corn (GA-tolerant); Table 6, post-emergence, 1-3-leaf stage, scoring 14 days after treatment, g of ai/ha: A1.1 100, B1.1 5, C3 5, C11 25) was 0% and the “Damage to crop plants (%) corn” value (corn (GA-tolerant); Table 7, post-emergence, 1-leaf stage, scoring 14 days after treatment, g of ai/ha: A1.1 100, B1.1 5, C12 50) was 0%. For the same compound, the “Damage to crop plants (%) corn” value (corn (GA-tolerant); [3]) was 0% and the “Herbicidal efficacy % Pharbitis purpureum” value (Pharbitis purpureum) was 45%.
With `COc1ccccc1C(=O)NS(=O)(=O)c1ccc(C(=O)NC2CC2)cc1` [(C15) cyprosulfamide, cyprosulfamide] the “Herbicidal efficacy % Eleusine indica” value (Eleusine indica) was 0% and the “Damage to crop plants (%) corn” value (corn (GA-tolerant); [3]) was 0%.
`O=C(O)C1=NOC(c2ccccc2)(c2ccccc2)C1` [(C14) isoxadifen, isoxadifen] was tested, and the “Herbicidal efficacy % Eleusine indica” value (Eleusine indica) was 0% and the “Damage to crop plants (%) corn” value (corn (GA-tolerant); [3]) was 0%.
For `CC(C)N(C(=O)COc1nnc(C(F)(F)F)s1)c1ccc(F)cc1` [(C11) flufenacet, flufenacet], the “Herbicidal efficacy % Setaria viridis” value (Setaria viridis) was 0% and the “Damage to crop plants (%) corn” value (corn (GA-tolerant); in vivo) was 0%.
In the case of `Cc1c(C(=O)c2cnn(C)c2O)ccc(S(C)(=O)=O)c1C1=NOCC1` [(C13) topramezone, topramezone], the “Herbicidal efficacy % Setaria faberii” value (Setaria faberii) is reported as 10% and the “Damage to crop plants (%) corn” value (corn (GA-tolerant); [1]) is reported as 0%.
With `CS(=O)(=O)c1cc(C(F)(F)F)ccc1C(=O)c1cnoc1C1CC1` [(C3) isoxaflutole, isoxaflutole] the “Herbicidal efficacy % Setaria viridis” value (Setaria viridis) was 0% and the “Damage to crop plants (%) corn” value (corn (GA-tolerant); in vivo) was 15%.
With `COC(=O)c1csc(C)c1S(=O)(=O)NC(=O)n1nc(OC)n(C)c1=O` [(C8) thiencarbazone-me, thiencarbazone-methyl] the “Herbicidal efficacy % Eleusine indica” value (Eleusine indica) was 10% and the “Damage to crop plants (%) corn” value (corn (GA-tolerant); [3]) was 0%.
